This is an account of results in PMC7564282, “Juniperonic Acid Biosynthesis is Essential in Caenorhabditis elegans Lacking Δ6 Desaturase (fat-3) and Generates New ω-3 Endocannabinoids” (Cells, 2020).

Like-named read-outs stand apart in the source and are kept apart here. Bounds are passed on as bounds.

One may read the IC50 as the concentration that gives 50% inhibition.

The target of one assay is T1, NPR-32 (Caenorhabditis elegans, UniProt O62403).
T1 sequence (O62403 1-440): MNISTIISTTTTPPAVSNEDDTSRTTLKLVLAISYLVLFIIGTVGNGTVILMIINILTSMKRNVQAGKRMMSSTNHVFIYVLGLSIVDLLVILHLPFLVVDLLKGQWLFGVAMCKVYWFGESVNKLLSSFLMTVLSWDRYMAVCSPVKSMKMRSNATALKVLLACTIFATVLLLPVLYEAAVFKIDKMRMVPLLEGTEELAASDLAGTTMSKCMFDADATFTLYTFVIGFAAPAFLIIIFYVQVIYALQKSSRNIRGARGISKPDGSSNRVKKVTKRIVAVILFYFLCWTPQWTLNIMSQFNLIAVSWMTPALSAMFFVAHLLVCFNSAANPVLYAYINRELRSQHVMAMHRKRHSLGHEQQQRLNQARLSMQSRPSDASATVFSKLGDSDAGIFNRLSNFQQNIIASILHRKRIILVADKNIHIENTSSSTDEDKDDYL
Put plainly: NPR-32 competitive binding assay with [3H]CP55,940 on N2 (WT) membrane preparations. Set-up: species or system C. elegans. The method, then: (§1) Worm homogenization and membrane preparation: the animals were collected from NGM plates as described before. The animals were freshly broken/homogenized by tip sonication before the beginning of every assays in S-basal and then a protein estimation was carried out for these samples, by a standard BCA kit (Sigma-Aldrich, St. Louis, MO, USA). For membrane preparations the worm pellet was resuspended in homogenization buffer (50 mM Tris HCl pH = 7.4, 3 mM MgCl2, 1 mM EGTA). Next, the homogenate was transferred to an ultracentrifuge tube and spun at 100,000× g for 60 min at 4 °C. The supernatant was carefully removed and the pellet was gently washed. Then, the pellet was resuspended with the help of a polytron in 50 mM Tris HCl pH = 7.4 and passed through a clean syringe. Finally, the sample was sonicated in a water bath for 5 min. A protein estimation for the membranes was carried out and the aliquots were frozen and stored at −80 °C.
CP55,940 for 75 min at 30 °C. After the incubation time, membrane suspensions were rapidly filtered through a 0.1% polyethyleneimine presoaked 96-well microplate bonded with GF/B glass fiber filters (UniFilter-96 GF/B, PerkinElmer Life Sciences) under vacuum and washed 12 times with 120 µL of washing buffer (50 mM Tris-HCl, 2.5 mM EDTA, 5 mM MgCl2, 0.5% BSA, pH 7.5). […] The results were analyzed with GraphPad Prism 5® and expressed as % of [^3H]CP55,940 binding. IC50 values of each compound were estimated from fitted nonlinear curves and were used to calculate the Ki values by applying the Cheng-Prusoff equation.

For a further assay, the system named is MAGL. Put plainly: Competitive [3H]2-OG hydrolysis assay in pig brain homogenate. It is filed as biochemical.
In assay [1] the test system is 2-OG hydrolysis in whole worm homogenates. Kind of assay: Competitive [3H]2-OG hydrolysis assay in whole worm homogenate. It is filed as biochemical, C. elegans. As to the method: as §1
(§2) AEA and [^3H] 2-OG, respectively. The reaction was performed using worm homogenate (200 or 100 µg per sample) or pig brain homogenate (200 µg per sample) in 194 μL of assay buffer (10 mM Tris-HCl, 1 mM EDTA, 0.1 % BSA, pH 8.0). […] Signal was detected with TRICARB 2100TR scintillation counter and results were analyzed with GraphPad Prism 5® and expressed as [^3H] […]

In assay [2] the test system is fat-3(wa22) mutant. Kind of assay: Development monitoring after dietary PUFA supplementation. The class given is in vivo, C. elegans. Conditions: 200 μM in E. coli OP50 diet, 36 h after hatching, 23 °C. As to the method:
Ten mM stock solutions of AA, ω-3 AA and JuA were prepared in DMSO and kept at −20 °C. These stocks were diluted in E. coli OP50 to a final concentration of 200 μM, and 100 μL of the volume was seeded onto each plate, with appropriate DMSO controls, allowing drying for 1 h in the dark. The animals that were treated with the PUFAs from hatching were allowed to grow on these plates until they reached L4 larval stage. For monitoring the development N2 (WT) and fat-3(wa22) gravid animals were allowed to lay eggs for 2–3 h. These eggs were transferred onto NGM plates supplemented with PUFAs as described above. Their growth was monitored and then imaged using an AmScope MU1000 camera, USA.

Assay [3] deals with fat-3(wa22) mutant. Kind of assay: Brood size assay after dietary PUFA supplementation. It is filed as in vivo, C. elegans. As to conditions: for hatching and brood size defects: fat-3(wa22), 200 μM in E. coli OP50 diet, p < 0.0001. The method, then: (§3) Ten mM stock solutions of AA, ω-3 AA and JuA were prepared in DMSO and kept at −20 °C. These stocks were diluted in E. coli OP50 to a final concentration of 200 μM, and 100 μL of the volume was seeded onto each plate, with appropriate DMSO controls, allowing drying for 1 h in the dark. The animals that were treated with the PUFAs from hatching were allowed to grow on these plates until they reached L4 larval stage.
N2 (WT) and fat-3(wa22) were transferred onto NGM plates supplemented with PUFAs as described above. Once they reached L4 larval stage, one worm per plate was transferred to a plate freshly seeded with PUFAs and allowed to grow at 23 °C. These animals were transferred to new plates every 24 h until they ceased to lay eggs. The number of hatched progeny was checked and counts were performed after the population reached L3/L4 stage. This assay was carried out in three independent trials. Results were analyzed with GraphPad Prism 5®, San Diego, CA, USA. The data were pooled and analyzed using Student’s t test. p < 0.05 was accepted as statistically significant.
The RNA interference (RNAi) by feeding assay was performed on NGM agar plates supplemented with additional antibiotics ([…], […]) and 0.8 mM isopropyl-β-D-thiogalactopyranosid (IPTG). The Ahringer RNAi collection was used, E. coli HT115 bacteria containing RNAi vectors expressing double-stranded RNA of the genes fat-4, elo-1, and elo-2 were pre-cultured, induced with IPTG, and used as nematode food as described previously. Assays were carried out on plates seeded with RNAi bacteria induced overnight; the PUFAs were dissolved in sterile distilled water, and then overlaid on the plates just before the assays.

In a further assay the test system is N2 (WT) animals. Put plainly: Lifespan assay, N2 (WT). As to conditions: supplementation, 23 °C, 50 μg/mL FUDR. The class given is in vivo, C. elegans. As to the method: as §3
All lifespan assays were carried out at 23 °C. Synchronized populations were obtained by allowing 10–15 hermaphrodites lay eggs overnight, and the next day the parents were removed. The eggs were allowed to hatch and 30 L4/young adult animals per plate (NGM plate containing 50 μg/mL FUDR to prevent the growth of progeny) were used for each assay. All the assays were carried out at least in triplicates and a minimum of two independent trials were performed for all conditions. The dead animals were counted starting the next day and exploding, protruding, bagging or contaminated animals were censored if applicable. We defined the day when we transferred the L4/young adult animals as day 0 of adult age. All statistical analyses were carried out using results that were analyzed with GraphPad Prism 5®. Kaplan–Meier lifespan analysis was carried out, and p values were calculated using the log-rank test. p < 0.05 was accepted as statistically significant.

In a further assay the target is T2, FAAH (Sus scrofa, UniProt Q9TUI8).
T2 construct: or pig brain homogenate (200 µg per sample); from tissue; host or cells: pig brain homogenate
T2 sequence (Q9TUI8 1-579): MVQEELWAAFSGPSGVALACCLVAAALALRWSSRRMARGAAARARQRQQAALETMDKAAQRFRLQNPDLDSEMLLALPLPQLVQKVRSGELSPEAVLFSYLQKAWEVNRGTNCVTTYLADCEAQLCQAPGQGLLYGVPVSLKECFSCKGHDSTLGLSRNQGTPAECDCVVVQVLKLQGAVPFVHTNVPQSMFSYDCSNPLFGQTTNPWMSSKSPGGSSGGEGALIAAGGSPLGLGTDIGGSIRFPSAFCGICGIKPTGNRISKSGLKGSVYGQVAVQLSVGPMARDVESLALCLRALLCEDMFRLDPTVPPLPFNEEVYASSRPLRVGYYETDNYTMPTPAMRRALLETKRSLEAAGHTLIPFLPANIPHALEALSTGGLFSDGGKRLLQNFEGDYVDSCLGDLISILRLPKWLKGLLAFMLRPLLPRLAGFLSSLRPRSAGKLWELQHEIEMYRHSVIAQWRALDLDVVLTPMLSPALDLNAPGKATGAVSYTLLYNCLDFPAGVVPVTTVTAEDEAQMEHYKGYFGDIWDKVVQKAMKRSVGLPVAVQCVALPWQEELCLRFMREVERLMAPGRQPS
Kind of assay: Competitive [3H]AEA hydrolysis assay in pig brain homogenate. The class given is biochemical. The method, then: AEA and [^3H] 2-OG, respectively. The reaction was performed using worm homogenate (200 or 100 µg per sample) or pig brain homogenate (200 µg per sample) in 194 μL of assay buffer (10 mM Tris-HCl, 1 mM EDTA, 0.1 % BSA, pH 8.0). […] The reaction was stopped by adding 400 μL of ice-cold mixture CHCl3-CH3OH (1:1 v/v), and, subsequently, tubes were vortexed and centrifuged for 10 min at 4 °C and 10,000 rpm. Finally, the upper aqueous phase was transferred to scintillation vials and mixed with 3 mL of Ultima Gold scintillation liquid. Signal was detected with TRICARB 2100TR scintillation counter and results were analyzed with GraphPad Prism 5® and expressed as [^3H] AEA or [^3H] 2-OG hydrolysis (% of vehicle).

The next assay has as its target T3, FAAH-1 (Caenorhabditis elegans, UniProt Q17449).
T3 construct: from tissue; host or cells: whole C. elegans worm homogenate
T3 sequence (Q17449 15-572): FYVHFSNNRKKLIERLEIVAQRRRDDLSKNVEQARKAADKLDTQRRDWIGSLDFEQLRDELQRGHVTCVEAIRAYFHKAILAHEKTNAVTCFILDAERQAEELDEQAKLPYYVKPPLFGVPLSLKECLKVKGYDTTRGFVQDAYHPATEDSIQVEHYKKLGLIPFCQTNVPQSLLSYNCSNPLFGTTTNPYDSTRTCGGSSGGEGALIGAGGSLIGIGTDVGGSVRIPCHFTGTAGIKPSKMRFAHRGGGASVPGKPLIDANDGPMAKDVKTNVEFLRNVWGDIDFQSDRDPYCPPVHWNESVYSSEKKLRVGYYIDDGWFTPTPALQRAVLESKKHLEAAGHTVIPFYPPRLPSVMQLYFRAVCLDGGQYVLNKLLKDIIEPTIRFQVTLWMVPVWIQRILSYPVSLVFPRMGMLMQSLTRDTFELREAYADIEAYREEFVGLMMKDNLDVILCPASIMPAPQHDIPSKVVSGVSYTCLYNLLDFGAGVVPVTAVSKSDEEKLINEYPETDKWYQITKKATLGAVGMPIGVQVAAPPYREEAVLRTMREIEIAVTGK
Kind of assay: Competitive [3H]AEA hydrolysis assay in whole worm homogenate. The class given is biochemical, C. elegans. The method, then: as §1, §2

Where [4] appears, read: displacement of 3 nM [3H]CP55,940, N2 (WT) membranes, 5 µM JZL-195 preincubation; apparent Ki by Cheng-Prusoff; 95% CI; read-out: Ki, NPR-32 binding.
Where [5] appears, read: read-out: Ki, NPR-32 binding; displacement of 3 nM [3H]CP55,940, N2 (WT) membranes, 5 µM JZL-195 preincubation; apparent Ki by Cheng-Prusoff; 95% CI.

With 1/2-juniperoylglycerol [1/2-JG], the Ki at NPR-32 (setting [4]) was 1100 nM. Besides, the “hydrolysis by MAGL (competition with tritiated 2-OG)” value in the assay with MAGL is listed as “readily hydrolyzed”. Further, the “competition with 2-OG hydrolysis” value in assay [1] is reported as “competed”.
Turning to “Omega-3 1/2-arachidonoyl glycerol [ω-3 1/2-AG]”, the “competition with 2-OG hydrolysis” value in assay [1] is on record as “competed”.
`CCCCC/C=C\C/C=C\C/C=C\C/C=C\CCCC(=O)O` [AA, Arachidonic acid]: the “recovery of growth and development defects” value (“recovery” below) in the assay on fat-3(wa22) mutant [2] was “significant recovery of growth and development defects”. In addition, the “hatching and brood size defects” value with fat-3(wa22) mutant [3] is reported as “recovered”. In addition, the effect on lifespan result in the assay with N2 (WT) animals is on record as “did not affect the lifespan”.
For `CC/C=C\C/C=C\C/C=C\C/C=C\CCCCCCC(=O)NCCO` [ω-3 AEA, Omega-3 N-arachidonoyl ethanolamine], on NPR-32 (setting [5]), the Ki came out at 1000 nM. Also, the half-inhibitory concentration (IC50) at FAAH (20 min 37 °C, AEA final 2 µM, read-out: IC50, competition with [3H]-AEA hydrolysis) was over 100000 nM; on FAAH-1 (whole worm homogenate, 20 min 37 °C, AEA final 2 µM, read-out: IC50, competition with [3H] AEA hydrolysis) it was 36000 nM.
In the case of `CC/C=C\C/C=C\C/C=C\CCCC/C=C\CCCC(=O)NCCO` [JEA, N-juniperoyl ethanolamine], the Ki at NPR-32 (setting [4]) amounted to 740 nM. On FAAH, the “hydrolysis by FAAH (competition with tritiated AEA)” value is recorded as “readily hydrolyzed”. The “competition with AEA hydrolysis” value at FAAH-1 (whole worm homogenates) is reported as “competed”.
For the molecule `CC/C=C\C/C=C\C/C=C\C/C=C\CCCCCCC(=O)O` [ω-3 AA, Omega-3 arachidonic acid], the “recovery” value in the assay with fat-3(wa22) mutant [2] is “significant recovery of growth and development defects”. In the assay on fat-3(wa22) mutant [3], the “hatching and brood size defects” value is listed as “recovered”. Moreover, the effect on lifespan entry with N2 (WT) animals is given as “did not affect the lifespan”.
`CC/C=C\C/C=C\C/C=C\CCCC/C=C\CCCC(=O)O` [JuA, Juniperonic acid]: the “recovery” value in the assay with fat-3(wa22) mutant [2] is “significant recovery of growth and development defects”. In the assay on fat-3(wa22) mutant [3] (fat-3(wa22) with fat-4 and elo-2 RNAi knockdown, JuA supplementation), the “reversal of growth delay and brood size reduction in RNAi knockdowns” value is reported as “could reverse the additional detrimental effects”. In addition, in the assay with fat-3(wa22) mutant [3], the “hatching and brood size defects” value was “recovered”. Besides, in the assay on N2 (WT) animals, the effect on lifespan result is “did not affect the lifespan”.
In the case of `CCCCC/C=C\C/C=C\C/C=C\C/C=C\CCCC(=O)NCCO` [AEA, N-arachidonoyl ethanolamine], at NPR-32 (setting [5]), the Ki amounted to 1900 nM.
